Source: ChEMBL document CHEMBL1201862, “PubChem BioAssay data set” (2004)
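Following 48 hours of exposure in 96-well plates, responses at five concentrations were used to interpolate endpoints linearly. The concentration for 50% growth inhibition is given as GI50.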 Calls of active or inactive are those of the source. Rule as the data show it: active = GI50 up to about 1.1 µM and inactive = higher.

Legend:
Experiment in all cases: NCI-60 cell line screen, 48 h
A549 = system: A549
ACHN = system: ACHN
CAKI-1 = system: CAKI-1
CCRF-CEM = system: CCRF-CEM
COLO 205 = system: COLO 205
IGROV-1 = system: IGROV-1
MDA-MB-231 = system: MDA-MB-231
Malme-3M = system: Malme-3M
NCI-H226 = system: NCI-H226
OVCAR-5 = system: OVCAR-5
OVCAR-8 = system: OVCAR-8
PC-3 = system: PC-3
SF-268 = system: SF-268
SF-539 = system: SF-539
SK-MEL-2 = system: SK-MEL-2
SNB-75 = system: SNB-75
SW-620 = system: SW-620
TK-10 = system: TK-10
UO-31 = system: UO-31
SK-MEL-28 = system: SK-MEL-28

Question: Which GI50 (A549) does the source give for COc1ccc(-n2c(N)c(C#N)c(C#N)c2-c2ccco2)cc1 here?
Answer: > 100 µM (inactive)

Question: What about the GI50 (ACHN) of the same compound?
Answer: > 100 µM (inactive)

Question: And the GI50 (CAKI-1)?
Answer: > 100 µM (inactive)

Question: And the GI50 (CCRF-CEM)?
Answer: > 100 µM (inactive)

Question: And the GI50 (COLO 205)?
Answer: > 100 µM (inactive)

Question: And the GI50 (IGROV-1)?
Answer: 75.2 µM (inactive)

Question: And the GI50 (MDA-MB-231)?
Answer: > 100 µM (inactive)

Question: What about the GI50 (Malme-3M) of the same compound?
Answer: > 100 µM (inactive)

Question: What about the GI50 (NCI-H226) of the same compound?
Answer: > 100 µM (inactive)

Question: And the GI50 (OVCAR-5)?
Answer: > 100 µM (inactive)

Question: And the GI50 (OVCAR-8)?
Answer: > 100 µM (inactive)

Question: What about the GI50 (PC-3) of the same compound?
Answer: 46.3 µM (inactive)

Question: What about the GI50 (SF-268) of the same compound?
Answer: > 100 µM (inactive)

Question: What about the GI50 (SF-539) of the same compound?
Answer: > 100 µM (inactive)

Question: What about the GI50 (SK-MEL-2) of the same compound?
Answer: > 100 µM (inactive)

Question: And the GI50 (SNB-75)?
Answer: 11.9 µM (inactive)

Question: And the GI50 (SW-620)?
Answer: > 100 µM (inactive)

Question: And the GI50 (TK-10)?
Answer: > 100 µM (inactive)

Question: What about the GI50 (UO-31) of the same compound?
Answer: 82.8 µM (inactive)

Question: What does the source list for CCOC(=O)/C(C(=O)Nc1ccc(F)cc1)=C(/N)N1CCCC1?
Answer: GI50 (A549): > 100 µM (inactive); GI50 (ACHN): > 100 µM (inactive); GI50 (CAKI-1): > 100 µM (inactive); GI50 (CCRF-CEM): > 100 µM (inactive); GI50 (COLO 205): > 100 µM (inactive); GI50 (IGROV-1): > 100 µM (inactive); GI50 (MDA-MB-231): > 100 µM (inactive); GI50 (Malme-3M): > 100 µM (inactive); GI50 (NCI-H226): > 100 µM (inactive); GI50 (OVCAR-5): > 100 µM (inactive); GI50 (OVCAR-8): > 100 µM (inactive); GI50 (PC-3): > 100 µM (inactive); GI50 (SF-268): > 100 µM (inactive); GI50 (SF-539): > 100 µM (inactive); GI50 (SK-MEL-28): > 100 µM (inactive); GI50 (SK-MEL-2): > 100 µM (inactive); GI50 (SNB-75): > 100 µM (inactive); GI50 (SW-620): > 100 µM (inactive); GI50 (TK-10): > 100 µM (inactive)

Question: Which results are given for CCC(C#N)N(Cc1ccc(CN(C(=O)c2ccccc2)C(C#N)CC)cc1)C(=O)c1ccccc1 (stereo unspecified)?
Answer: GI50 (A549): 20.6 µM (inactive); GI50 (ACHN): 26.4 µM (inactive); GI50 (CAKI-1): 24.3 µM (inactive); GI50 (CCRF-CEM): 17.8 µM (inactive); GI50 (COLO 205): 14.7 µM (inactive); GI50 (IGROV-1): 18.4 µM (inactive); GI50 (MDA-MB-231): 23.7 µM (inactive); GI50 (Malme-3M): 31.6 µM (inactive); GI50 (NCI-H226): 32.5 µM (inactive); GI50 (OVCAR-5): 37.8 µM (inactive); GI50 (OVCAR-8): 31.6 µM (inactive); GI50 (PC-3): 26 µM (inactive); GI50 (SF-268): 29.4 µM (inactive); GI50 (SF-539): 18.6 µM (inactive); GI50 (SK-MEL-2): 21.7 µM (inactive); GI50 (SNB-75): 22.3 µM (inactive); GI50 (SW-620): 28.5 µM (inactive); GI50 (TK-10): 12.9 µM (inactive); GI50 (UO-31): 19.7 µM (inactive)

Question: Which GI50 (A549) does the source give for CN1C(=O)N(C)C(O)C(Cl)(Br)C1=O (stereo unspecified) here?
Answer: > 100 µM (inactive)

Question: And the GI50 (ACHN)?
Answer: > 100 µM (inactive)

Question: What about the GI50 (CAKI-1) of the same compound?
Answer: > 100 µM (inactive)

Question: What about the GI50 (CCRF-CEM) of the same compound?
Answer: > 100 µM (inactive)

Question: What about the GI50 (COLO 205) of the same compound?
Answer: > 100 µM (inactive)

Question: And the GI50 (IGROV-1)?
Answer: > 100 µM (inactive)

Question: What about the GI50 (MDA-MB-231) of the same compound?
Answer: > 100 µM (inactive)

Question: And the GI50 (Malme-3M)?
Answer: > 100 µM (inactive)

Question: And the GI50 (NCI-H226)?
Answer: > 100 µM (inactive)

Question: What about the GI50 (OVCAR-5) of the same compound?
Answer: 0.182 µM (active)

Question: What about the GI50 (OVCAR-8) of the same compound?
Answer: > 100 µM (inactive)

Question: And the GI50 (PC-3)?
Answer: > 100 µM (inactive)

Question: What about the GI50 (SF-268) of the same compound?
Answer: > 100 µM (inactive)

Question: What about the GI50 (SF-539) of the same compound?
Answer: > 100 µM (inactive)

Question: And the GI50 (SK-MEL-28)?
Answer: > 100 µM (inactive)

Question: And the GI50 (SK-MEL-2)?
Answer: > 100 µM (inactive)

Question: And the GI50 (SNB-75)?
Answer: > 100 µM (inactive)

Question: And the GI50 (SW-620)?
Answer: > 100 µM (inactive)

Question: What about the GI50 (TK-10) of the same compound?
Answer: > 100 µM (inactive)

Question: And the GI50 (UO-31)?
Answer: > 100 µM (inactive)

Question: How did the GI50 (A549) turn out when CC(Cl)CN1c2ccccc2Sc2ccc(Cl)cc21 (stereo unspecified) was run?
Answer: > 10 µM (inactive)

Question: What about the GI50 (ACHN) of the same compound?
Answer: > 10 µM (inactive)

Question: What about the GI50 (CAKI-1) of the same compound?
Answer: > 10 µM (inactive)

Question: And the GI50 (CCRF-CEM)?
Answer: > 10 µM (inactive)

Question: And the GI50 (COLO 205)?
Answer: > 10 µM (inactive)

Question: What about the GI50 (IGROV-1) of the same compound?
Answer: > 10 µM (inactive)

Question: And the GI50 (MDA-MB-231)?
Answer: > 10 µM (inactive)

Question: What about the GI50 (Malme-3M) of the same compound?
Answer: > 10 µM (inactive)

Question: What about the GI50 (NCI-H226) of the same compound?
Answer: > 10 µM (inactive)

Question: And the GI50 (OVCAR-5)?
Answer: > 10 µM (inactive)

Question: What about the GI50 (OVCAR-8) of the same compound?
Answer: > 10 µM (inactive)

Question: And the GI50 (PC-3)?
Answer: > 10 µM (inactive)

Question: What about the GI50 (SF-268) of the same compound?
Answer: > 10 µM (inactive)

Question: What about the GI50 (SF-539) of the same compound?
Answer: > 10 µM (inactive)

Question: And the GI50 (SK-MEL-28)?
Answer: > 10 µM (inactive)

Question: What about the GI50 (SK-MEL-2) of the same compound?
Answer: > 10 µM (inactive)

Question: And the GI50 (SNB-75)?
Answer: > 10 µM (inactive)

Question: What about the GI50 (SW-620) of the same compound?
Answer: > 10 µM (inactive)

Question: And the GI50 (TK-10)?
Answer: > 10 µM (inactive)

Question: And the GI50 (UO-31)?
Answer: > 10 µM (inactive)

Question: Which results are given for Nc1nc(Cl)cc(Nc2cc(Cl)cc(Cl)c2)n1?
Answer: GI50 (A549): 24.8 µM (inactive); GI50 (ACHN): 24.9 µM (inactive); GI50 (CAKI-1): 23.4 µM (inactive); GI50 (CCRF-CEM): 28.5 µM (inactive); GI50 (COLO 205): 22.4 µM (inactive); GI50 (IGROV-1): 18.7 µM (inactive); GI50 (MDA-MB-231): 20 µM (inactive); GI50 (Malme-3M): 22.3 µM (inactive); GI50 (NCI-H226): 18.7 µM (inactive); GI50 (OVCAR-5): 31.9 µM (inactive); GI50 (OVCAR-8): 14.2 µM (inactive); GI50 (PC-3): 19.7 µM (inactive); GI50 (SF-268): 20.8 µM (inactive); GI50 (SF-539): 17 µM (inactive); GI50 (SK-MEL-2): 18.7 µM (inactive); GI50 (SNB-75): 21.7 µM (inactive); GI50 (SW-620): 22.4 µM (inactive); GI50 (TK-10): 20.4 µM (inactive); GI50 (UO-31): 19.6 µM (inactive)
